The results in this text go back to patent publication US10336766B2, “Anticancer drug candidates” (THE SCRIPPS RESEARCH INSTITUTE, priority 2015, dated 2019).

Read-outs that look alike come from different tables or passages of the source.

Holding throughout (assay type): cell-based, human
In data set [1] the test system is non-small cell lung cancer cell NCI-H226. Description: In vitro cytotoxic activity, CELLTITER 96 AQueous One Solution (MTS) assay, NCI-H226. To be noted: 72 h treatment, mean ± SD of 3 replicates, read-out: IC50 cytotoxicity, NCI-H226. The protocol: (§1) The in vitro cytotoxic activity (IC50, half maximal inhibitory concentration) of the tiancimycins was tested against selected human cancer cell lines, such as breast cancer cells MDA-MB-468, melanoma cell M14 and SK-MEL-5, non-small cell lung cancer cell NCI-H226, central nervous system cell lines SF-295 and SF-539, and the known enediyne UCM was used as a comparison. Suspended cultures of cells were diluted to a concentration of 5×10^4 cells mL^−1 in RPMI 1640 medium supplemented with 10% fetal bovine serum, 100 μgmL^−1 streptomycin, and 100 UmL^−1 penicillin. The suspended cultures were dispensed into 96-well microtiter plates (100 μL per well) and the plates were incubated for 24 hours at 37° C. in an atmosphere of 5% CO2, 95% air, and 100% humidity. After incubation, original medium was removed and 100 μL of fresh medium was added, followed by adding serial dilutions of the tiancimycins (A, B, and C, 1 μl) and UCM (1 μl) in DMSO. The concentration of the tested compounds was ranged from 0 to 100 nM. Plates were incubated under the above conditions for 72 hours. After incubation, 20 μl CELLTITER 96® AQueous One Solution Reagent (Promega Corp, Madison, Wis., USA) was added to the plates and incubated at 37° C. in a humidified, 5% CO2 atmosphere for 30 to 60 min. The absorbance at 490 nm was recorded using an ELISA plate reader. Each point represents the mean±SD of 3 replicates. The IC50 was determined by computerized curve fitting.
(§2) Antitumor activities were assessed using CELLTITER 96® Aqueous One Solution Proliferation Assay (MTS) (Promega Corp.). Cells were plated in 96-well plate at 5000 cells/well and allowed to adhere overnight at 37° C. in a humidified atmosphere of 5% CO2. Medium was then removed and replaced by fresh culture medium containing different concentrations of different drugs. The cells were treated for 72 h before the assay was developed. All assay values were measured in triplicate.

Data set [2] deals with breast cancer cells MDA-MB-468. Description: In vitro cytotoxic activity, CELLTITER 96 AQueous One Solution (MTS) assay, MDA-MB-468. The conditions noted are these: 72 h treatment, mean ± SD of 3 replicates, read-out: IC50 cytotoxicity, MDA-MB-468. As to the method: as §1, §2
The test system of data set [3] is melanoma cell SK-MEL-5. Description: In vitro cytotoxic activity, CELLTITER 96 AQueous One Solution (MTS) assay, SK-MEL-5. To be noted: 72 h treatment, mean ± SD of 3 replicates, read-out: IC50 cytotoxicity, SK-MEL-5. The protocol: as §1, §2
For data set [4], the system named is central nervous system cell line SF-295. Description: In vitro cytotoxic activity, CELLTITER 96 AQueous One Solution (MTS) assay, SF-295. To be noted: 72 h treatment, mean ± SD of 3 replicates, read-out: IC50 cytotoxicity, SF-295. As to the method: as §1, §2
Data set [5] relates to central nervous system cell line SF-539. Description: In vitro cytotoxic activity, CELLTITER 96 AQueous One Solution (MTS) assay, SF-539. To be noted: 72 h treatment, mean ± SD of 3 replicates, read-out: IC50 cytotoxicity, SF-539. The protocol:
as §1, §2

The test system of data set [6] is melanoma cell M14. Description: In vitro cytotoxic activity, CELLTITER 96 AQueous One Solution (MTS) assay, M14. The conditions noted are these: 72 h treatment, mean ± SD of 3 replicates, read-out: IC50 cytotoxicity, M14. As to the method:
as §1, §2

For `COc1ccc2c(c1O)C(=O)c1c3c(cc(O)c1C2=O)C12O[C@@]1([C@@H](C)O)[C@H](C#C/C=C\C#C[C@H]2O)N3` [TNM A, tiancimycin A], the IC50 in data set [1] (Homo sapiens) was determined as 2.3 ± 0.1 nM; in data set [2] (Homo sapiens) it was 0.1 ± 0.01 nM; in data set [3] (Homo sapiens), 0.19 ± 0.01 nM; in data set [4] (Homo sapiens), 0.14 ± 0.01 nM; in data set [5] (Homo sapiens), 0.3 ± 0.08 nM; in data set [6] (Homo sapiens), 0.14 ± 0.01 nM.
Consider `COC(=O)/C=C(\C)[C@@]12OC13c1cc(O)c4c(c1N[C@H]2C#C/C=C\C#C[C@H]3O)C(=O)c1ccccc1C4=O` [TNM B, tiancimycin B], for which the IC50 in data set [1] (Homo sapiens) stood at 2.8 ± 0.1 nM; in data set [2] (Homo sapiens), 0.1 ± 0.01 nM; in data set [3] (Homo sapiens), 0.19 ± 0.04 nM; in data set [4] (Homo sapiens) it was 0.26 ± 0.02 nM; in data set [5] (Homo sapiens), 0.23 ± 0.05 nM; in data set [6] (Homo sapiens), 0.24 ± 0.01 nM.
With `COC(=O)C(O)C(C)(O)[C@@]12OC13c1cc(O)c4c(c1N[C@H]2C#C/C=C\C#C[C@H]3O)C(=O)c1c(ccc(O)c1O)C4=O` (stereo partly drawn) [TNM C, tiancimycin C], the 50% inhibitory concentration (IC50) in data set [1] (Homo sapiens) worked out at 3.3 ± 0.3 nM; in data set [2] (Homo sapiens), 0.07 ± 0.01 nM; in data set [3] (Homo sapiens), 0.14 ± 0.02 nM; in data set [4] (Homo sapiens), 0.28 ± 0.02 nM; in data set [5] (Homo sapiens) it was 0.3 ± 0.05 nM; in data set [6] (Homo sapiens) it was 0.25 ± 0.01 nM.
Turning to `CC(O)[C@@]12O[C@]13c1cc(O)c4c(c1N[C@H]2C#C/C=C\C#C[C@H]3O)C(=O)c1ccccc1C4=O` (stereo partly drawn) [UCM, uncialamycin, reference compound], the concentration for half-maximal inhibition (IC50) in data set [1] was determined as 4.1 ± 0.2 nM; in data set [2], 0.22 ± 0.03 nM; in data set [3], 1.7 ± 0.1 nM; in data set [4] it was 0.51 ± 0.05 nM; in data set [5], 0.67 ± 0.03 nM; in data set [6] it was 0.47 ± 0.07 nM.

What is called IC50 is the concentration needed to halve the response being measured.
